Measurements from article PMC4319564 (Journal of materials chemistry. B, Materials for biology …, 2014).

Tested on: PTX-resistant KB-V1 cervical cancer cells
Test: Cytotoxicity, SRB assay
Type: cell-based
Conditions: 48 h incubation, 0.01-1000 nM, triplicate

## CC(=O)O[C@H]1C(=O)[C@@]2(C)[C@H]([C@H](OC(=O)c3ccccc3)[C@]3(O)C[C@H](OC(=O)[C@H](O)[C@@H](NC(=O)c4ccccc4)c4ccccc4)C(C)=C1C3(C)C)[C@]1(OC(C)=O)CO[C@@H]1C[C@@H]2O [PTX, paclitaxel]
  Toxicity (in words): do not exert any toxicity
